Results as given in US5609872A, “Peptides comprising a protective epitope from blood stages of plasmodium falciparum” (priority 1990, dated 1997).
Ends that are not written are not given here.

System: mAb 33G2
Experiment: PEPSCAN ELISA of rod-bound peptides with mAb 33G2
Assay type: binding, human
Conditions: culture supernatant with mAb 33G2 (approx. 10 μg/ml) diluted 1:100; N-acetylated peptides on rods
Description: The detailed epitope specificity on the single amino acid level for the mAb 33G2 was performed using the multiple peptide synthesis technique (PEPSCAN) developed by Geysen et al. (J. Immunol. Methods 102, 259-274, 1987). Peptides were synthesized on polyethylene rods on which polymers of polyacrylic acid had been formed by […]. Polyethylene rods and Pmoc L-amino acids performed as active esthers (Cambridge Research Biochemicals, UK) were used for synthesis according to instructions of the manufacturer. The N-terminals of all peptides were acetylated. As a basis for the mAb 33G2 epitope analysis, the sequence of amino acid residues 1-19 [SEQ ID NO.: 15] (ESVTEEIAEEDKSVIEEAV) of Ag332 (Mattei, D., Berzins, K., Wahlgren, M., Udomsangpetch, R., Perlmann, P., Griesser, H. W., Scherf, A., M uller-Hill, B., Bonnefoy, S., Guillotte, M., Langsley, G., Pereira da Silva, L. and Mercereau-Puijalon, O. (1989) Cross-reactive antigenic determinants present on different Plasmodium falciparum blood-stage antigens. Parasite Immunol. 11, 15-30) was used, containing sequences of the peptides with the highest reactivity with the mAb (Udomsangpetch, R., Carlsson, J., W ahlin, B., Holmquist, G., Ozaki, L. S., Scherf, A., Mattei, D., Mercereau-Puijalon, O., Uni, S., Aikawa, M., Berzins, K. and Perlmann, P. (1989) Reactivity of the human monoclonal antibody 33G2 with repeated sequences of three distinct Plasmodium falciparum antigens. J. Immunol. 142, 3620-3626). All possible overlapping heptapeptides, hexpeptides, pentapeptides and tetrapeptides covering the mentioned sequence were synthesized and their reactivity with mAb 33G2 was analysed by ELISA as described by Geysen et al. (J. Immunol. Methods 102, 259-274, 1987). Culture supernatant containing mAb 33G2 (approx. 10 μg/ml), was diluted 1:100. Peptide containing rods were washed in phosphate-buffered saline with 0.05% Tween 20 between all steps in ELISA. Bound antibodies were detected with a rabbit antihuman IgM-alkaline phosphatase conjugate (Sigma, St. Louis, Mo.) using p-nitrophenyl phosphate, disodium salt (Sigma) as substrate.

Row | Substance | reactivity with mAb 33G2 in ELISA (absorbance at 405 nm), in words
1 | ESVTEEI [glu-ser-val-thr-glu-glu-ile, heptapeptide, amino acids 1-7 of Ag332] | showed reactivity
2 | IADEV: pentapeptide epitope analog of residue 3-7 of Ag332 | recognized
3 | LVEEV: pentapeptide epitope analog of residue 3-7 of Ag332 | recognized
4 | SVTEEIA [ser-val-thr-glu-glu-ile-ala, heptapeptide, amino acids 2-8 of Ag332] | showed reactivity
5 | TEEIAEE [thr-glu-glu-ile-ala-glu-glu, heptapeptide, amino acids 4-10 of Ag332] | showed reactivity
6 | VTEEIAE [val-thr-glu-glu-ile-ala-glu, heptapeptide, amino acids 3-9 of Ag332] | showed reactivity
7 | VVEEV: pentapeptide epitope analog of residue 3-7 of Ag332; printed as SEQ ID NO.:19 (LVEEV) | recognized
8 | YLDEV: pentapeptide epitope analog of residue 3-7 of Ag332 | did not react
9 | ile-ala-asp-glu-ile (IADEI) | recognized
10 | ile-thr-glu-glu-ile (ITEEI) | recognized
11 | ser-val-thr-glu-glu-ile (SVTEEI) [hexapeptide, amino acids 2-7 of Ag332] | recognized
12 | thr-glu-glu-ile-ala-glu (TEEIAE) [hexapeptide, amino acids 4-9 of Ag332] | recognized
13 | val-ala-glu-glu-ile (VAEEI) | recognized
14 | val-thr-glu-glu-ile-ala (VTEEIA) [hexapeptide, amino acids 3-8 of Ag332] | recognized

System: binding of mAb 33G2 to Pf11/RESA
Experiment: not given
Conditions: peptide mixed with a fixed concentration of the mAb; up to 200 μg/ml tested; cited from earlier work

Row | Substance | peptide concentration giving complete inhibition of mAb 33G2 immunofluorescence [µg/mL]
15 | (EEVVEEVVP)2: synthetic peptide corresponding to repeated sequence in antigen Pf11.1 (also: dimer of the repeat (EEVVEEVVP)2) | 100
16 | Y (SVTEEIAEEDK)2: peptide corresponding to a dimer of amino acids 2-12 in antigen Ag332 (YSVTEEIAEEDK; also: dimer of the peptide) | 0.2
